Drawing on patent US20190119200A1, “TERTIARY AMIDES AND METHOD OF USE” (AbbVie Inc., priority 2016, published 2019), this text covers IC50 and Emax for 16 compounds.

What all share (assay type): cell-based
Assay [1] concerns the target T1, LPAR1 (Homo sapiens, UniProt Q92633).
T1 construct: host or cells: U2OS
The experiment in a line: LPAR1 Arrestin Assay (arrestin reporter assay). Particulars: U2OS cells stably expressing the LPAR1 receptor, 200 nM 18:1 LPA (EC80); for Emax: read-out: Maximum Inhibition. A digest of the protocol: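 U2OS cells stably expressing LPAR1 pretreated 1 h at 37° C with compound, then stimulated 5 h with 200 nM 18:1 LPA (EC80), 0.1% DMSO, 0.02% BSA. β-lactamase reporter read by CCF4-AM FRET (460/530 nm emission) after 2 h dye load; 12-point curves, duplicate, n≥3.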

Assay [2] concerns the target T1, LPAR1. The experiment in a line: IP-One HTRF Assay. The settings on record: U2OS cells stably expressing LPAR1, LPA stimulation, IP-One Tb HTRF kit; for Emax: read-out: Maximum Inhibition. In short, it runs like this:
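U2OS cells stably expressing LPAR1 were preincubated with compound (11-point 3-fold series from 2 mM DMSO stock) for 20 min at 37 °C, then stimulated with LPA for 2 h at 37 °C. IP1 accumulation was read by IP-One HTRF (665/615 nm ratio). IC50 came from four-parameter logistic Hill fits.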

The target of assay [3] is T1, LPAR1. In words: LPAR1 FLIPR Assay. The settings on record: U2OS cells stably expressing LPAR1, LPA (EC80), Calcium 6 FLIPR dye; for Emax: read-out: Maximum Inhibition. A digest of the protocol:
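Calcium flux read-out (515-575 nm, FLIPR) in LPAR1-expressing U2OS cells after LPA challenge at EC80, given 3 min after compound addition; cells carried Calcium 6 dye loaded 2 h at 37° C. Eleven-point 3-fold dilutions were fitted with a four-parameter Hill equation for IC50.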

T1 sequence (Q92633 whole entry): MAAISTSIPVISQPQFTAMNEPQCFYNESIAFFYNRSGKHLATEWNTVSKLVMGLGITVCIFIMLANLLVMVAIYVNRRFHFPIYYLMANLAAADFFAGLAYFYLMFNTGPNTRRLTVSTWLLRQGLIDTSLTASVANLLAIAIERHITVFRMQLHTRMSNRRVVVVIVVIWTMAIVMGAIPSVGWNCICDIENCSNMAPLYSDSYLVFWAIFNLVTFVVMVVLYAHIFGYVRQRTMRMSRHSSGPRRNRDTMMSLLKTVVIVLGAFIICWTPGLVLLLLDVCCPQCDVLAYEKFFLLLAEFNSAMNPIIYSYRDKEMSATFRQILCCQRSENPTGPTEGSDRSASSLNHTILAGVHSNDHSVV

As usually defined, the IC50 is the concentration that inhibits the measured activity by half. On to `COc1cc(C(=O)N(CCCc2ccccc2)CCOCP(=O)(O)O)cc(OC)c1C` [Example 50, ({2-[(3,5-dimethoxy-4-methylbenzoyl)(3-phenylpropyl)amino]ethoxy}methyl)phosphonic Acid], for which the IC50 against LPAR1 [1] is 1 nM; on LPAR1 [2] it was 3 nM; on LPAR1 [3], 3 nM. Also, the Emax on LPAR1 [1] worked out at 103%; on LPAR1 [2], 85%; at LPAR1 [3], 101%.
Regarding `COc1cc(C(=O)N(CCCc2ccccc2)CCCC(C)(C)C(=O)O)cc(OC)c1C` [Example 57, 5-[(3,5-dimethoxy-4-methylbenzoyl)(3-phenylpropyl)amino]-2,2-dimethylpentanoic Acid], the IC50 against LPAR1 [1] was found to be 4 nM; against LPAR1 [2], 62 nM; at LPAR1 [3] it was 35 nM. In addition, the Emax stood at 103% on LPAR1 [1], 95% on LPAR1 [2] and 100% at LPAR1 [3].
For the compound `COc1cc(C(=O)N(CCCc2ccccc2)CCSCCC(=O)O)cc(OC)c1C` [Example 60, 3-({2-[(3,5-dimethoxy-4-methylbenzoyl)(3-phenylpropyl)amino]ethyl}sulfanyl)propanoic Acid], the IC50 was determined as 308 nM against LPAR1 [1], 208 nM at LPAR1 [2] and 20 nM on LPAR1 [3]. The Emax on LPAR1 [1] was found to be 110%; at LPAR1 [2], 82%; at LPAR1 [3] it was 95%.
`COc1cc(C(=O)N(CCCc2ccccc2)CCSC(C)CC(=O)O)cc(OC)c1C` (stereo not drawn) [Example 62, 3-({2-[(3,5-dimethoxy-4-methylbenzoyl)(3-phenylpropyl)amino]ethyl}sulfanyl)butanoic Acid]: the values for the IC50 on LPAR1 [1], at LPAR1 [2] and at LPAR1 [3] were 39 nM, 291 nM and 29 nM, respectively. Moreover, the Emax is 114% on LPAR1 [1], 75% at LPAR1 [2] and 97% at LPAR1 [3].
For `COc1cc(OC)cc(C(=O)N(CCCCC(=O)O)CCCc2cccc(Cl)c2)c1` [Example 91, 5-{[3-(3-chlorophenyl)propyl](3,5-dimethoxybenzoyl)amino}pentanoic Acid], the values for the IC50 against LPAR1 [1], against LPAR1 [2] and on LPAR1 [3] were 293 nM, 285 nM and 25 nM, respectively. For the same compound, the Emax was 120% on LPAR1 [1], 70% on LPAR1 [2] and 89% on LPAR1 [3].
With `COc1cc(C(=O)N(CCCc2cccc(Cl)c2)CCOCC(=O)O)cc(OC)c1C` [Example 109, (2-{[3-(3-chlorophenyl)propyl](3,5-dimethoxy-4-methylbenzoyl)amino}ethoxy)acetic Acid], the IC50 against LPAR1 [1] turned out to be 139 nM; at LPAR1 [2], 809 nM; at LPAR1 [3], 15 nM. For the same compound, the Emax worked out at 111% on LPAR1 [1], 85% on LPAR1 [2] and 93% on LPAR1 [3].
Take `COc1cc(C(=O)N(CCCc2ccccc2F)CCOCC(=O)O)cc(OC)c1C` [Example 110, (2-{(3,5-dimethoxy-4-methylbenzoyl)[3-(2-fluorophenyl)propyl]amino}ethoxy)acetic Acid]: the half-maximal inhibitory concentration (IC50) worked out at 706 nM at LPAR1 [1], 902 nM against LPAR1 [2] and 16 nM at LPAR1 [3]. Also, the Emax at LPAR1 [1] worked out at 110%; at LPAR1 [2], 82%; on LPAR1 [3], 90%.
For the compound `COc1cc(C(=O)N(CCCCC(=O)NS(C)(=O)=O)CCCc2ccccc2)cc(OC)c1C` [Example 111, N-{5-[(methanesulfonyl)amino]-5-oxopentyl}-3,5-dimethoxy-4-methyl-N-(3-phenylpropyl)benzamide], the values for the IC50 against LPAR1 [1], on LPAR1 [2] and at LPAR1 [3] were 93 nM, 570 nM and 28 nM, respectively. Further, the figures for the Emax on LPAR1 [1], on LPAR1 [2] and at LPAR1 [3] were 116%, 80% and 95%, respectively.
Take `COc1ccc(C2(C(=O)N(CCCc3ccccc3)CCSCC(=O)O)CC2)cc1` [Example 115, [(2-{[1-(4-methoxyphenyl)cyclopropane-1-carbonyl](3-phenylpropyl)amino}ethyl)sulfanyl]acetic Acid]: the figures for the concentration for half-maximal inhibition (IC50) against LPAR1 [1], at LPAR1 [2] and on LPAR1 [3] were 1080 nM, 2910 nM and 30 nM, respectively. Further, the values for the Emax on LPAR1 [1], at LPAR1 [2] and at LPAR1 [3] were 104%, 71% and 78%, respectively.
In the case of `COc1cc(C(=O)N(CCCc2ccccc2F)CCSCC(=O)O)cc(OC)c1C` [Example 116, [(2-{(3,5-dimethoxy-4-methylbenzoyl)[3-(2-fluorophenyl)propyl]amino}ethyl)sulfanyl]acetic Acid], the IC50 against LPAR1 [1] was determined as 281 nM; at LPAR1 [2] it was 344 nM; on LPAR1 [3], 20 nM. The Emax was 108% at LPAR1 [1], 81% on LPAR1 [2] and 88% on LPAR1 [3].
As to `COc1cc(C(=O)N(CCCc2cccc(F)c2)CCSCC(=O)O)cc(OC)c1C` [Example 117, [(2-{(3,5-dimethoxy-4-methylbenzoyl)[3-(3-fluorophenyl)propyl]amino}ethyl)sulfanyl]acetic Acid], the IC50 was determined as 103 nM against LPAR1 [1], 473 nM against LPAR1 [2] and 10 nM on LPAR1 [3]. Besides, the values for the Emax on LPAR1 [1], on LPAR1 [2] and on LPAR1 [3] were 116%, 85% and 93%, respectively.
Turning to `COc1cc(C(=O)N(CCCc2cccc(Cl)c2)CCSCC(=O)O)cc(OC)c1C` [Example 122, [(2-{[3-(3-chlorophenyl)propyl](3,5-dimethoxy-4-methylbenzoyl)amino}ethyl)sulfanyl]acetic Acid], the IC50 is 152 nM on LPAR1 [1], 134 nM against LPAR1 [2] and 10 nM on LPAR1 [3]. Besides, the Emax on LPAR1 [1] was determined as 127%; at LPAR1 [2] it was 78%; on LPAR1 [3], 95%.
In the case of `COc1cc(C(=O)N(CCCc2cccc(F)c2)CCOCC(=O)O)cc(OC)c1C` [Example 129, (2-{(3,5-dimethoxy-4-methylbenzoyl)[3-(3-fluorophenyl)propyl]amino}ethoxy)acetic Acid], the IC50 is 218 nM against LPAR1 [1], 1310 nM against LPAR1 [2] and 20 nM on LPAR1 [3]. Moreover, the Emax on LPAR1 [1] stood at 124%; on LPAR1 [2] it was 96%; at LPAR1 [3], 93%.
Turning to `COc1cc(C(=O)N(CCCc2ccccc2Cl)CCOCC(=O)O)cc(OC)c1C` [Example 131, (2-{[3-(2-chlorophenyl)propyl](3,5-dimethoxy-4-methylbenzoyl)amino}ethoxy)acetic Acid], the IC50 at LPAR1 [1] was determined as 2140 nM; against LPAR1 [2], 1480 nM; on LPAR1 [3], 21 nM. For the same compound, the Emax at LPAR1 [1] was 120%; at LPAR1 [2] it was 101%; at LPAR1 [3], 86%.
`COc1cc(C(=O)N(CCCc2ccc(C)o2)CCSCC(=O)O)cc(OC)c1C` [Example 132, [(2-{(3,5-dimethoxy-4-methylbenzoyl)[3-(5-methylfuran-2-yl)propyl]amino}ethyl)sulfanyl]acetic Acid]: the IC50 worked out at 490 nM against LPAR1 [1], 220 nM on LPAR1 [2] and 10 nM on LPAR1 [3]. The values for the Emax at LPAR1 [1], on LPAR1 [2] and on LPAR1 [3] were 126%, 80% and 86%, respectively.
As for `COc1cc(C(=O)N(CCCc2ccccc2)CCCC(C)(O)C(=O)O)cc(OC)c1C` (stereo not drawn) [Example 155, 5-[(3,5-dimethoxy-4-methylbenzoyl)(3-phenylpropyl)amino]-2-hydroxy-2-methylpentanoic Acid], the IC50 at LPAR1 [1] amounted to 401 nM; on LPAR1 [2] it was 663 nM; on LPAR1 [3] it was 27 nM. Besides, the Emax at LPAR1 [1] is 125%; on LPAR1 [2] it was 83%; on LPAR1 [3] it was 90%.
